# Key:
# hepatic OCT1 = target: T1, hepatic OCT1 (Mus musculus, UniProt O08966); assay: Plasma isobutyryl L-carnitine (IBC) after a single oral dose of dasatinib in mice; format: in vivo; set-up: from tissue; host or cells: liver of wild-type mice, in vivo; conditions: single oral dose 15 mg/kg
# T1 sequence (O08966 1-556): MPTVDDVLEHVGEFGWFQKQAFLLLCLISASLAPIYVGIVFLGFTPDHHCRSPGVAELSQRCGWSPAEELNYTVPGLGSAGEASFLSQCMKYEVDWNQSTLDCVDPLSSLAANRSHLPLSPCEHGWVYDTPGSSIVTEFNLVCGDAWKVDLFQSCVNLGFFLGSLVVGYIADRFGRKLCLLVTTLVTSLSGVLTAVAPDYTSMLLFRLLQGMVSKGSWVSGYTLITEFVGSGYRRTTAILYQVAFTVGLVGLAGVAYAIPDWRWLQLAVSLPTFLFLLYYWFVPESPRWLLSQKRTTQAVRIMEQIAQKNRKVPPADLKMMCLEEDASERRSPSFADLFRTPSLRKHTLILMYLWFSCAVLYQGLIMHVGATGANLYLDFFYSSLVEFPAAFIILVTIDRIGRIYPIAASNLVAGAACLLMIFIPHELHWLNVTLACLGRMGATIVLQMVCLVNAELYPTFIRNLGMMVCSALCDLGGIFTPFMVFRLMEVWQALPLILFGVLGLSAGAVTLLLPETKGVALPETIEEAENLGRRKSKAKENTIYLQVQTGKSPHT
# Description: Mice were accommodated in a temperature-, and light-controlled environment with access to water and food. OCT1/2/MATE1-deficient mice was obtained by crossing male OCT1/2-knockout mice with female MATE1-knockout mice to generate heterozygous breeders. The MATE1-deficient mice used to generate this model were kindly provided by Dr. Yan Shu (University of Maryland, Baltimore, MD), and backcrossed onto an FVB background. Next, heterozygous males and females were used to obtain OCT1/2/MATE1-knockout mice. Genetic deletion of OCT1/2 and MATE1 was confirmed by performing RT-PCR analysis.
# TEA (0.2 mg/kg) via the caudal vein. Concentrations of total TEA-derived radioactivity in plasma and homogenized liver samples were measured by liquid scintillation counting.
# A Vanquish UHPLC paired with a Quantiva triple quadrupole mass spectrometer (Thermo Fisher Scientific) was used to perform LC-MS/MS analysis of IBC and the internal standard, isobutyryl L-carnitine-d3 (Cayman Chemical, Ann Arbor, MI). Chromatographic separation of analytes was achieved on an Accucore aQ column (150 mm × 2.1 mm, dp = 2.6 μm) with a C18 AQUASIL guard cartridge (2.1 mm × 10 mm, dp = 3 μm). The temperature of the column and autosampler was retained at 40 and 4°C, respectively. […] The lower limit of quantification for IBC was 0.1 ng/ml.
# OCT2 (hOCT2) = target: T2, OCT2 (hOCT2) (Homo sapiens, UniProt O15244); conditions: cited from earlier work
# T2 construct: expressed in transfected cells; host or cells: overexpressing cell model
# T2 sequence (O15244 1-555): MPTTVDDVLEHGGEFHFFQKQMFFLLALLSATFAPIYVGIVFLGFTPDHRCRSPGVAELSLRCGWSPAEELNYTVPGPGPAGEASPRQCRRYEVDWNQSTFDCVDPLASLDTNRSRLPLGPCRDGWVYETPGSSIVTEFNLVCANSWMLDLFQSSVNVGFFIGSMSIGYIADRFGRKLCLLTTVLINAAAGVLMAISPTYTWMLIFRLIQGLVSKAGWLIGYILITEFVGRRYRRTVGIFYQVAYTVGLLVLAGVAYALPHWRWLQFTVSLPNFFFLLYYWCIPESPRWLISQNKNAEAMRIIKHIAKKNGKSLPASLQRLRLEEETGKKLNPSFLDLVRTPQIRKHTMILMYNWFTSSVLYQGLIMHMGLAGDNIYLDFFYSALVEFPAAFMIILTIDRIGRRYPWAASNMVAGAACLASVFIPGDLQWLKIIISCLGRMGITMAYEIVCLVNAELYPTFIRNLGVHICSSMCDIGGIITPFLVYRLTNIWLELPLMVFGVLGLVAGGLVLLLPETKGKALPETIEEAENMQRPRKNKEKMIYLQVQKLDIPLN
# mouse OCT1 (mOCT1) = target: T3, mouse OCT1 (mOCT1) (Mus musculus, UniProt O08966); assay: Cellular uptake of [14C] TEA in HEK293 cells overexpressing mOCT1, with or without inhibitor; format: cell-based
# T3 construct: expressed in transfected cells
# T3 sequence (O08966 1-556): T1 sequence (O08966 1-556)
# Procedure: Human embryonic kidney (HEK293) cells were obtained from the American Type Culture Collection (ATCC, Manassas, VA). HEK293 cells stably transfected with mouse OCT1 (mOCT1) or human OCT1 (hOCT1) were cultured in Dulbecco’s Modified Eagle Media (DMEM) media supplemented with 10% fetal bovine serum (FBS) and grown at 37°C in a humidified incubator containing 5% CO2. Radiolabeled [^14C] TEA and [^14C] metformin were obtained from American Radiochemicals (St. Louis, MO). Cellular uptake assays were performed 48 h following transient transfection by Lipofectamine 3000 Transfection Reagent (Thermo Fisher Scientific, Waltham, MA). ON-TARGETplus Human YES1 siRNA was obtained from Dharmacon (Lafayette, CO). RNA extraction kits were obtained from Omega Bio-tek (Norcross, GA).
# Uptake assays were performed with radiolabeled TEA (2 µM) or metformin (5 µM) as described previously ([Sprowl et al., 2013]; [Pabla et al., 2015]) in the presence or absence of TKIs. The results were normalized to uptake values in cells stably transfected with an empty vector treated with vehicle alone (Supplementary Figure S1). Prior to cellular accumulation experiments, cells were grown to 90% confluence on poly-lysine coated multi-well plates. For uptake studies, cells were rinsed with warm PBS and incubated in the presence of a vehicle or inhibitor, prepared in serum and phenol red-free DMEM media for 15 min. Subsequently, media was removed followed by the addition of radiolabeled TEA and metformin along with inhibitor, and cellular uptake was measured after a 15-min co-incubation period. Total radioactivity originating from TEA and metformin was determined using liquid scintillation counting after lysing the cells with 1 N NaOH, a neutralizing step with 2 M HCl. A Pierce protein assay (Thermo Fisher Scientific, Waltham, MA) was used to normalize radioactivity readings to account for variation in cell number between samples.
structure (smiles),measurement,setting,value
"Cc1nc(Nc2ncc(C(=O)Nc3c(C)cccc3Cl)s2)cc(N2CCN(CCO)CC2)n1 [Dasatinib, dasatinib]","plasma levels of IBC after dasatinib, OCT1/2-deficient or OCT1/2/MATE1-deficient mice",hepatic OCT1,not
same,"plasma levels of IBC after dasatinib, wild-type mice",hepatic OCT1; wild-type mice,"transient, statistically significant increase"
same,OCT2 inhibition,"OCT2 (hOCT2); Yes/No, TKIs previously found to inhibit OCT2, ref Sprowl et al., 2016",Yes
same,"OCT2 inhibition, co-incubation designs","OCT2 (hOCT2); ref Minematsu and Giacomini, 2011",only a weak inhibitor
same,"OCT2 function, pre-incubation conditions","OCT2 (hOCT2); ref Sprowl et al., 2016",potently inhibits
same,IC50,"mouse OCT1 (mOCT1); HEK293-mOCT1, [14C] TEA 2 µM, 15 min pre-incubation + 15 min co-incubation, read-out: IC50, mOCT1-mediated transport of TEA",1090 nM
same,Ki,"mouse OCT1 (mOCT1); read-out: inhibition constant (Ki), Dixon plot, mOCT1",870 nM
